Results taken from patent US4960755A, “BU-3608 derivatives” (Bristol-Myers Company, priority 1988, dated 1990).
Values after ≈ are worked out from the molar mass of the structure shown. Like-named read-outs stand apart in the source and are kept apart here.

Assays:
Solubility in water = type: physicochemical; conditions: in words
[1] = Solubility in phosphate-buffered saline solutions, PBS(-) and PBS(+); type: physicochemical
Protocol: The solubility of the various antibiotics was determined in phosphate-buffered saline (PBS) solutions and the data obtained are shown below. PBS(-) refers to a solution containing for each liter 0.2 g KCl, 0.2 g KH2 PO4, 8 g NaCl, and 1.15 g Na2 HPO4; PBS(+) contains additionally 100 mg MgCl2.6H2 O and 100 mg CaCl2.

Candida albicans A9540 = experiment: In vivo activity against Candida albicans A9540 infection in mice; set-up: species or system male ICR mice; conditions: for ED50: Candida albicans, read-out: PD50 (dose that protects 50% of the animals from infection)
Protocol: In vivo activity of compounds of the present invention was tested against Candida albicans A9540 infection in mice. Test organisms were cultured for 18 hours at 28° C. in YGP medium (yeast extract, glucose, peptone, K2 HPO4, MgSO4) and then suspended in saline. Male ICR mice weighing 20 to 24 g were infected intravenously with about 10 times the median lethal dose of the test fungus. The antibiotic at various dose levels was administered to groups of 5 mice each intravenously just after the fungal infection. The dose that protects 50% of the animals from infection (PD50, mg/kg) was calculated from survival rates recorded on the 20th day after the fungal challenge. All control animals died within 7 to 15 days after infection. The PD50 for compounds of Examples 5, 7, and 8 are 14 mg/kg (toxic), 11 mg/kg, and 3.5 mg/kg, respectively.

[2] = pbs(+) with mgcl2, PBS(+), containing additionally MgCl2 and CaCl2, read-out: Solubility
[3] = A9540, 480 h, intravenous just after infection, survival on 20th day

| solubility ([1]; pbs(-), read-out: Solubility) | Structure (SMILES) | solubility [1, 2] | other results |
| --- | --- | --- | --- |
| 16 to 18 µg/mL (≈ 19 to 21.4 µM) | CN[C@@H]1[C@H](O[C@@H]2OC[C@@H](O)[C@H](O)[C@H]2O)[C@@H](O)[C@H](O[C@H]2c3cc(C)c(C(=O)N[C@H](C)C(=O)O)c(O)c3-c3c(cc4c(c3O)C(=O)c3cc(OC)cc(O)c3C4=O)[C@@H]2O)O[C@@H]1C [BU-3608] | 9 to 23 µg/mL (≈ 10.7 to 27.4 µM) | solubility in water (Solubility in water): very limited |
|  | COc1cc(O)c2c(c1)C(=O)c1c(cc3c(c1O)-c1c(cc(C)c(C(=O)N[C@H](C)C(=O)O)c1O)[C@H](O[C@@H]1O[C@H](C)[C@H](N(C)C)[C@H](O)[C@H]1O)[C@H]3O)C2=O [Example 5, N-methyl BU-3608 B] |  | ED50 (Candida albicans A9540; A9540, iv, 480 h): 14 mg/kg; toxicity remark at PD50 (Candida albicans A9540; intravenous, at 14 mg/kg, mice): toxic; solubility ([1]; pbs(+) with mgcl2, cacl2): 42 µg/mL (≈ 58.1 µM); solubility ([1]; pbs(-)): 330 µg/mL (≈ 457 µM) |
|  | COc1cc(O)c2c(c1)C(=O)c1c(cc3c(c1O)-c1c(cc(C)c(C(=O)NCC(=O)O)c1O)[C@H](O[C@@H]1O[C@H](C)[C@H](N(C)C)[C@H](O)[C@H]1O)[C@H]3O)C2=O [Example 6, N,N-dimethyl desxylosyl BU-3608 E] |  | solubility ([1]; pbs(+) with mgcl2, cacl2): 122 µg/mL (≈ 172 µM); solubility ([1]; pbs(-)): > 2100 µg/mL |
| 73 µg/mL (≈ 82.7 µM) | CCCN(C)[C@@H]1[C@H](O[C@@H]2OC[C@@H](O)[C@H](O)[C@H]2O)[C@@H](O)[C@H](O[C@H]2c3cc(C)c(C(=O)N[C@H](C)C(=O)O)c(O)c3-c3c(cc4c(c3O)C(=O)c3cc(OC)cc(O)c3C4=O)[C@@H]2O)O[C@@H]1C [Example 9, N-propyl BU-3608] | 32 µg/mL (≈ 36.2 µM) |  |
| > 2700 µg/mL | COc1cc(O)c2c(c1)C(=O)c1c(cc3c(c1O)-c1c(cc(C)c(C(=O)N[C@H](C)C(=O)O)c1O)[C@H](O[C@@H]1O[C@H](C)[C@H]([N+](C)(C)C)[C@H](O[C@@H]4OC[C@@H](O)[C@H](O)[C@H]4O)[C@H]1O)[C@H]3O)C2=O [Example 10, quaternary ammonium derivative of BU-3608] |  |  |

| Structure (SMILES) | solubility ([1]; pbs(-), read-out: Solubility) | solubility [1, 2] | other results |
| --- | --- | --- | --- |
| COc1cc(O)c2c(c1)C(=O)c1c(cc3c(c1O)-c1c(cc(C)c(C(=O)NCC(=O)O)c1O)[C@H](O[C@@H]1O[C@H](C)[C@H](N(C)C)[C@H](O[C@@H]4OC[C@@H](O)[C@H](O)[C@H]4O)[C@H]1O)[C@H]3O)C2=O [Example 7, N,N-dimethyl BU-3608 E] | 1800 µg/mL (≈ 2140 µM) | > 2000 µg/mL | ED50 (Candida albicans A9540; [3]): 11 mg/kg |
| COc1cc(O)c2c(c1)C(=O)c1c(cc3c(c1O)-c1c(cc(C)c(C(=O)N[C@H](C)C(=O)O)c1O)[C@H](O[C@@H]1O[C@H](C)[C@H](N(C)C)[C@H](O[C@@H]4OC[C@@H](O)[C@H](O)[C@H]4O)[C@H]1O)[C@H]3O)C2=O [Example 8, N-methyl BU-3608] | 3100 µg/mL (≈ 3630 µM) | 3 µg/mL (≈ 3.51 µM) | ED50 (Candida albicans A9540; [3]): 3.5 mg/kg |
